Assay results reported in paper PMC12274840 (The Journal of Biological Chemistry, 2025).
Converted amounts (≈) assume the structure as drawn. Read-outs that look alike come from different tables or passages of the source.

Columns and labels:
[1] = test system: E. coli KA797 cells carrying pUK21 with BlaC WT (Tat); experiment: microbe, parasite or virus in culture; type: cell-based; settings: Escherichia coli, antibiotic alone
BlaC WT = biological target: T1, BlaC WT (Mycobacterium tuberculosis, UniProt P9WKD3); type: biochemical; settings: pH 6.4
T1 construct: correspond to residue numbers 41-307 of BlaC (Uniprot entry P9WKD3-1); His tag with TEV cleavage site (N); made in house; host or cells: E. coli BL21 (DE3) pLysS

[2] = test system: E. coli KA797 cells carrying pUK21 with TEM-1 WT (Sec); experiment: microbe, parasite or virus in culture; type: cell-based; settings: Escherichia coli, antibiotic alone
CTX-M-14 Y105G = biological target: T2, CTX-M-14 Y105G (Escherichia coli, UniProt Q9L5C7, Y108G); type: biochemical
T2 construct: 29 to 291 of CTX-M-14 (Q9L5C7); His tag with TEV cleavage site (N); made in house; host or cells: E. coli BL21 (DE3) pLysS

TEM-1 Y105G = TEM-1 Y105G (Escherichia coli, UniProt P62593, Y103G); experiment: Steady-state kinetics of substrate hydrolysis, TEM-1 Y105G; type: biochemical; settings: phosphate buffer pH 6.4, 25 °C
[3] = test system: E. coli KA797 cells carrying pUK21 with NmcA (pelB/Sec); experiment: microbe, parasite or virus in culture; type: cell-based; settings: Escherichia coli, antibiotic alone
[4] = test system: E. coli KA797 cells carrying TEM-1 position 105 library; type: cell-based; settings: for Fi AMP AVG: average of replicates
[5] = test system: E. coli KA797 cells carrying CTX-M-14 position 105 library; type: cell-based
[6] = test system: E. coli KA797 cells carrying KPC-2 position 105 library; type: cell-based; settings: selection with labelled antibiotic

Compound: CC1(C)S[C@@H]2[C@H](NC(=O)[C@H](N)c3ccccc3)C(=O)N2[C@H]1C(=O)O [ampicillin]
- MIC [1]: 50 µg/mL (≈ 143 µM)
- kcat (BlaC WT): 14 ± 2 s⁻¹
- Km (BlaC WT; read-out: KM^app): 68 ± 3 µM
- MIC [2]: 12.8 mg/mL (≈ 36600 µM)
- kcat (CTX-M-14 Y105G; phosphate buffer pH 6.4, 25 °C): 48 ± 2 s⁻¹
- Km (CTX-M-14 Y105G; read-out: KM^app, phosphate buffer pH 6.4, 25 °C): 297 ± 10 µM
- kcat (TEM-1 Y105G): 601 ± 9 s⁻¹
- MIC [3]: 400 µg/mL (≈ 1140 µM)
- Significance (Average fitnes AMP) ([4]; AA 105 Ala): -
- Fi AMP AVG ([4]; AA 105 Ala): -0.222
- Fi AMP 1 ([4]; AA 105 Ala, replicate 1): -0.205
- Fi AMP 2 ([4]; AA 105 Ala, replicate 2): -0.239
- Significance (Average fitnes AMP) ([4]; AA 105 Arg): -
- Fi AMP AVG ([4]; AA 105 Arg): -0.576
- Fi AMP 1 ([4]; AA 105 Arg, replicate 1): -0.568
- Fi AMP 2 ([4]; AA 105 Arg, replicate 2): -0.584
- Significance (Average fitnes AMP) ([4]; AA 105 Asn): -
- Fi AMP AVG ([4]; AA 105 Asn): -0.070
- Fi AMP 1 ([4]; AA 105 Asn, replicate 1): -0.049
- Fi AMP 2 ([4]; AA 105 Asn, replicate 2): -0.091
- Significance (Average fitnes AMP) ([4]; AA 105 Asp): -
- Fi AMP AVG ([4]; AA 105 Asp): -0.429
- Fi AMP 1 ([4]; AA 105 Asp, replicate 1): -0.401
- Fi AMP 2 ([4]; AA 105 Asp, replicate 2): -0.457
- Significance (Average fitnes AMP) ([4]; AA 105 Cys): -
- Fi AMP AVG ([4]; AA 105 Cys): -0.587
- Fi AMP 1 ([4]; AA 105 Cys, replicate 1): -0.602
- Fi AMP 2 ([4]; AA 105 Cys, replicate 2): -0.572
- Significance (Average fitnes AMP) ([4]; AA 105 Gln): -
- Fi AMP AVG ([4]; AA 105 Gln): -0.282
- Fi AMP 1 ([4]; AA 105 Gln, replicate 1): -0.271
- Fi AMP 2 ([4]; AA 105 Gln, replicate 2): -0.293
- Significance (Average fitnes AMP) ([4]; AA 105 Glu): -
- Fi AMP AVG ([4]; AA 105 Glu): -0.667
- Fi AMP 1 ([4]; AA 105 Glu, replicate 1): -0.663
- Fi AMP 2 ([4]; AA 105 Glu, replicate 2): -0.672
- Significance (Average fitnes AMP) ([4]; AA 105 Gly): -
- Fi AMP AVG ([4]; AA 105 Gly): -0.061
- Fi AMP 1 ([4]; AA 105 Gly, replicate 1): -0.036
- Fi AMP 2 ([4]; AA 105 Gly, replicate 2): -0.087
- Significance (Average fitnes AMP) ([4]; AA 105 His): -
- Fi AMP AVG ([4]; AA 105 His): -0.071
- Fi AMP 1 ([4]; AA 105 His, replicate 1): -0.065
- Fi AMP 2 ([4]; AA 105 His, replicate 2): -0.077
- Significance (Average fitnes AMP) ([4]; AA 105 Ile): -
- Fi AMP AVG ([4]; AA 105 Ile): -0.580
- Fi AMP 1 ([4]; AA 105 Ile, replicate 1): -0.558
- Fi AMP 2 ([4]; AA 105 Ile, replicate 2): -0.602
- Significance (Average fitnes AMP) ([4]; AA 105 Leu): -
- Fi AMP AVG ([4]; AA 105 Leu): -0.490
- Fi AMP 1 ([4]; AA 105 Leu, replicate 1): -0.459
- Fi AMP 2 ([4]; AA 105 Leu, replicate 2): -0.521
- Significance (Average fitnes AMP) ([4]; AA 105 Lys): -
- Fi AMP AVG ([4]; AA 105 Lys): -0.754
- Fi AMP 1 ([4]; AA 105 Lys, replicate 1): -0.749
- Fi AMP 2 ([4]; AA 105 Lys, replicate 2): -0.759
- Significance (Average fitnes AMP) ([4]; AA 105 Met): -
- Fi AMP AVG ([4]; AA 105 Met): -0.188
- Fi AMP 1 ([4]; AA 105 Met, replicate 1): -0.138
- Fi AMP 2 ([4]; AA 105 Met, replicate 2): -0.238
- Significance (Average fitnes AMP) ([4]; AA 105 Phe): -
- Fi AMP AVG ([4]; AA 105 Phe): -0.048
- Fi AMP 1 ([4]; AA 105 Phe, replicate 1): -0.041
- Fi AMP 2 ([4]; AA 105 Phe, replicate 2): -0.054
- Significance (Average fitnes AMP) ([4]; AA 105 Pro): -
- Fi AMP AVG ([4]; AA 105 Pro): -0.152
- Fi AMP 1 ([4]; AA 105 Pro, replicate 1): -0.157
- Fi AMP 2 ([4]; AA 105 Pro, replicate 2): -0.147
- Significance (Average fitnes AMP) ([4]; AA 105 Ser): -
- Fi AMP AVG ([4]; AA 105 Ser): -0.203
- Fi AMP 1 ([4]; AA 105 Ser, replicate 1): -0.219
- Fi AMP 2 ([4]; AA 105 Ser, replicate 2): -0.186
- Significance (Average fitnes AMP) ([4]; AA 105 Thr): -
- Fi AMP AVG ([4]; AA 105 Thr): -0.391
- Fi AMP 1 ([4]; AA 105 Thr, replicate 1): -0.402
- Fi AMP 2 ([4]; AA 105 Thr, replicate 2): -0.379
- Fi AMP AVG ([4]; AA 105 Trp): 0.019
- Fi AMP 1 ([4]; AA 105 Trp, replicate 1): 0.033
- Fi AMP 2 ([4]; AA 105 Trp, replicate 2): 0.006
- Fi AMP AVG ([4]; AA 105 Tyr): 0.000
- Fi AMP 1 ([4]; AA 105 Tyr, replicate 1): 0.000
- Fi AMP 2 ([4]; AA 105 Tyr, replicate 2): 0.000
- Significance (Average fitnes AMP) ([4]; AA 105 Val): -
- Fi AMP AVG ([4]; AA 105 Val): -0.403
- Fi AMP 1 ([4]; AA 105 Val, replicate 1): -0.371
- Fi AMP 2 ([4]; AA 105 Val, replicate 2): -0.435
- WT abs Fi 1 ([4]; absolute fitness of TEM-1 WT, AMP, replicate 1): 0.351
- WT abs Fi 2 ([4]; absolute fitness of TEM-1 WT, AMP, replicate 2): 0.374
- Significance of average fitness ([5]; CTX-M-14 AA 105 Ala): -
- Significance of average fitness ([5]; CTX-M-14 AA 105 Arg): -
- Significance of average fitness ([5]; CTX-M-14 AA 105 Asn): -
- Significance of average fitness ([5]; CTX-M-14 AA 105 Asp): -
- Significance of average fitness ([5]; CTX-M-14 AA 105 Cys): -
- Significance of average fitness ([5]; CTX-M-14 AA 105 Gln): -
- Significance of average fitness ([5]; CTX-M-14 AA 105 Glu): -
- Significance of average fitness ([5]; CTX-M-14 AA 105 Gly): -
- Significance of average fitness ([5]; CTX-M-14 AA 105 His): -
- Significance of average fitness ([5]; CTX-M-14 AA 105 Ile): -
- Significance of average fitness ([5]; CTX-M-14 AA 105 Leu): -
- Significance of average fitness ([5]; CTX-M-14 AA 105 Lys): -
- Significance of average fitness ([5]; CTX-M-14 AA 105 Met): -
- Significance of average fitness ([5]; CTX-M-14 AA 105 Pro): -
- Significance of average fitness ([5]; CTX-M-14 AA 105 Ser): -
- Significance of average fitness ([5]; CTX-M-14 AA 105 Thr): -
- Significance of average fitness ([5]; CTX-M-14 AA 105 Val): -
- WT abs Fi 2 (absolute fitness of wild type, Replicate 2) ([5]; CTX-M-14 WT (Tyr 105)): 0.605
- Fi AVG (average fitness of replicates) ([6]; KPC-2 AA 105 = Ala): -2.717
- Fi AVG (average fitness of replicates) ([6]; KPC-2 AA 105 = Arg): -1.311
- Significance of average fitness ([6]; KPC-2 AA 105 = Arg): -
- Fi AVG (average fitness of replicates) ([6]; KPC-2 AA 105 = Asn): -2.270
- Significance of average fitness ([6]; KPC-2 AA 105 = Asn): -
- Fi AVG (average fitness of replicates) ([6]; KPC-2 AA 105 = Cys): -1.421
- Significance of average fitness ([6]; KPC-2 AA 105 = Cys): -
- Fi AVG (average fitness of replicates) ([6]; KPC-2 AA 105 = Gln): -2.210
- Significance of average fitness ([6]; KPC-2 AA 105 = Gln): -
- Fi AVG (average fitness of replicates) ([6]; KPC-2 AA 105 = Glu): -2.582
- Significance of average fitness ([6]; KPC-2 AA 105 = Glu): -
- Fi AVG (average fitness of replicates) ([6]; KPC-2 AA 105 = Gly): -1.606
- Significance of average fitness ([6]; KPC-2 AA 105 = Gly): -
- Fi AVG (average fitness of replicates) ([6]; KPC-2 AA 105 = His): -0.658
- Fi AVG (average fitness of replicates) ([6]; KPC-2 AA 105 = Leu): -1.411
- Significance of average fitness ([6]; KPC-2 AA 105 = Leu): -
- Fi AVG (average fitness of replicates) ([6]; KPC-2 AA 105 = Met): -2.639
- Significance of average fitness ([6]; KPC-2 AA 105 = Met): -
- Fi AVG (average fitness of replicates) ([6]; KPC-2 AA 105 = Phe): -0.181
- Fi AVG (average fitness of replicates) ([6]; KPC-2 AA 105 = Pro): -1.601
- Significance of average fitness ([6]; KPC-2 AA 105 = Pro): -
- Fi AVG (average fitness of replicates) ([6]; KPC-2 AA 105 = Ser): -2.329
- Significance of average fitness ([6]; KPC-2 AA 105 = Ser): -
- Fi AVG (average fitness of replicates) ([6]; KPC-2 AA 105 = Thr): -2.338
- Fi AVG (average fitness of replicates) ([6]; KPC-2 AA 105 = Trp (WT, reference)): 0.000
- Fi AVG (average fitness of replicates) ([6]; KPC-2 AA 105 = Tyr): -1.608
- Significance of average fitness ([6]; KPC-2 AA 105 = Tyr): -
- Fi AVG (average fitness of replicates) ([6]; KPC-2 AA 105 = Val): -2.672
- Significance of average fitness ([6]; KPC-2 AA 105 = Val): -
- WT abs Fi 1 (absolute fitness) ([6]; KPC-2 WT (Trp 105), replicate 1): 0.183
- WT abs Fi 2 (absolute fitness) ([6]; KPC-2 WT (Trp 105), replicate 2): 0.061
- WT abs Fi 3 (absolute fitness) ([6]; KPC-2 WT (Trp 105), replicate 3): 0.422
